Experimental data from US20170008845A1, “PYRIDINYL CYCLOHEXANECARBOXAMIDE COOLING COMPOUNDS” (Givaudan, S.A., priority 2005, published 2017).
Like-named read-outs stand apart in the source and are kept apart here.

Experiments:
[1] = test system: panelists (cooling sensation in the mouth); test: Panel tasting of aqueous solutions: cooling intensity matched to menthol 2 ppm, and longevity; type: in vivo; details: for Longevity (time until no cooling could be sensed in the mouth): aqueous solution at the chosen concentration of Table 2; for Concentration with cooling intensity similar or slightly higher than menthol at 2 ppm: aqueous solution, tasted by a small panel
Description: The same panel is asked to taste these solutions at the chosen concentrations and to record the cooling intensity at regular time intervals until no cooling could be sensed in the mouth.

mouth and lips = details: 50 mL of 1% solution in alcohol per 1 liter mouthwash (with peppermint oil); 30 mL swished, gargled, spit out
Description: All the ingredients are mixed. 30 mL of obtained solution is put in the mouth, swished around, gargled and spit out.

[2] = test system: panelists (cooling sensation in the mouth); details: cooling intensity similar to or slightly higher than menthol at 2 ppm
panelist's mouth [3] = details: 2.500 g of 2% solution in propylene glycol in 97 g opaque toothgel (with peppermint oil); teeth brushed, mouth rinsed
Description: The chemicals are mixed in the toothgel, a piece of toothgel is put on a toothbrush and a panelist's teeth are brushed. The mouth is rinsed with water and the water is spit out.

panelist's mouth [4] = details: 1.5 mg in 355 mL can of clear lemon/lime soda
Description: 1.5 mg of the compound of example 2 is dissolved in a 355 mL (12 fl oz.) can of clear lemon/lime soda.

| Compound | Longevity (time until no cooling could be sensed in the mouth) [1] [min] | Concentration with cooling intensity similar or slightly higher than menthol at 2 ppm [1] [ppm] | Cooling sensation in mouthwash (mouth and lips) | Isointensive concentration [2] [ppm] | Isointensive concentration ([2]; listed as m = 0, 4) [ppm] | Cooling sensation in toothgel (panelist's mouth [3]) | After-taste in beverage (panelist's mouth [4]) | Cooling sensation in beverage (panelist's mouth [4]) | Isointensive concentration ([2]; listed as m = 2, 2 or 6) [ppm] |
| --- | --- | --- | --- | --- | --- | --- | --- | --- | --- |
| CCNC(=O)C1CC(C)CCC1C(C)C (centres unmarked) [N-ethyl p-menthanecarboxamide (WS-3), N-ethyl p-menthanecarboxamide, reference compound] | 57 | 1.5 |  |  |  |  |  |  |  |
| CC(C)[C@@H]1CC[C@@H](C)C[C@H]1O [l-Menthol, reference compound] | 35 | 2.0 |  |  |  |  |  |  |  |
| CC1CCC(C(C)C)C(C(=O)Nc2ccncc2)C1 (centres unmarked) [Example 1, N-(4-pyridinyl) p-menthanecarboxamide] | 50 | 0.5 | icy-cool sensation is felt in every area of the mouth as well as lips | 0.67 | 0.5 |  |  |  |  |
| CC(C)C(C)(C(=O)NCCc1ccccn1)C(C)C [Example 3, 2-isopropyl-2,3-dimethyl-N-(2-(pyridin-2-yl)ethyl)butanamide] |  | 0.4 |  |  |  |  |  |  |  |
| CC(C)[C@@H]1CC[C@@H](C)C[C@H]1C(=O)NCCc1ccccn1 [Example 2, (1R,2S,5R)-2-isopropyl-5-methyl-N-(2-(pyridin-2-yl)ethyl)cyclohexanecarboxamide] | 60 | 0.02 |  | 0.05 |  | intense cooling sensation is felt by the panelist in all areas of the mouth | No unpleasant after-taste | agreeable delayed cooling sensation in the mouth with no throat burning | 0.02 |
